Data set [1] relates to BALB/c mice inoculated with murine carcinoma of the breast (L-MM3). The data set is described as follows: Taxol-induced neutropenia in mice with L-MM3 carcinoma of the breast, blood cell count. Here is the method:
In addition, in this tumour model, the amount of circulating neutrophils was measured.
Acetyl L-carnitine inner salt (sterile ampoule), solubilised in water for injectable preparations, was used. Each ampoule of ALC is dissolved in 4 ml of water for injections (Solution O). 0.8 ml of (O) are brought to 50 ml with sterile PBS (Sigma) in order to perform the oral administration (100 mg/kg/50 ml).
At the time of use, the 12 mg/ml solution is diluted 1:4 with saline in phosphate buffer (PBS) (SIGMA,) and injected i.p. (30 mg/kg/10 ml).
Animals: 120 female BALB/c mice weighing 18-20 g (Harlan)
Treatment schedule 1: the transplantable murine breast cancer cells (L-MM3) of Balb/c origin are grown at 37° C. in plastic flasks in a 5% CO2 humidified incubator in DMEM medium containing 5% heat-inactivated FCS, L-glutamine 2 mM, and gentamicin 80 μg/ml. At the time of inoculation, the cells are detached with trypsin-EDTA and re-suspended in the same medium without […].
Unanaesthetised female Balb/c mice received subcutaneous injections in the flank of 4×10^5 cells in 0.2 ml of DMEM.
Four days after inoculation of the tumour, the animals were treated with the molecules according to the following schedule, for the purposes of evaluating neutropenia:
ALC is administered then for 10 days; the animals are sacrificed after 6 hours.
The experimental groups, each consisting of 15 mice, are:
Blood and bone marrow samples are taken for the first treatment schedule animals. On the days they are sacrificed, the mice are anaesthetised with CO2; blood is taken from the retro-orbital plexus (0.5 ml blood/mouse) and placed in Eppendorf test tubes containing 10 μl of Vister heparin (5000 U/ml). The animals are sacrificed by cervical dislocation. Later, the bone marrow samples are taken.
The instrument is used according to the instructions provided in the operating manual. The blood (25 μl) is taken from the dilutor and brought to a volume of 10 ml with isotonic solution (PLTA Saline, Delcon) in a beaker (dil. 1:400) (Solution A). From Solution A, the dilutor takes 100 μl and brings them to 10 ml (dil. 1:100) in another beaker (Solution B). To Solution A are added 3 drops of lysing agent (Emosol, Delcon), the solution is mixed by hand and left to act for approximately 2 minutes so that the red blood cells are lysed and HGB (haemoglobin) released. Solution A containing the lysing agent is used for the WBC and haemoglobin (HGB) readings. Solution B is used for the RBC and platelet (PLT) readings.
Double readings are done on each sample, and between one sample and the next, the instrument is washed using isotonic solution, Superfrost plus slides (25×75×1 mm) (Mensel-Glaser), ready for use, are adopted. The blood (8 μl) is deposited on the right-hand side of the slide; another slide, placed at a 45° angle, to the left of the blood, is drawn back until in comes into contact with the drop which spreads rapidly along the contact line between the two slides; the slide is moved forwards with a smooth, rapid movement so as to obtain a thin film of blood. The slide is left to dry in air, stained with Diff-Quick (DADE) dye, according to the attached instructions, and dried again in air.
The slides are immersed in Histolemon solution (Carlo Erba) for 2 sec.; a drop of synthetic mountant (Shandon) is deposited at the centre of the slide and a cover slide is placed over it covering the entire blood smear, taking care not to form bubbles between the two slides. The slides are dried and then the WBC count is performed, up to 100, with an optical microscope, after depositing a drop of cedar oil on the slide.
The quantity of […], assessed using the haemocytometer, is multiplied by the percentage value of the corresponding neutrophil granulocytes of the leukocyte formula. This parameter, divided by 100, expresses the value of neutrophils/mm^3 blood.
Comparison between the neutrophil granulocyte values obtained for the different groups is done using ANOVA.

Data set [2] relates to murine cancer of the breast (L-MM3). Description: L-MM3 tumour growth in Balb/c mice (taxol and ALC). Format: in vivo, mouse.
Description: Treatment schedule 1: the transplantable murine breast cancer cells (L-MM3) of Balb/c origin are grown at 37° C. in plastic flasks in a 5% CO2 humidified incubator in DMEM medium containing 5% heat-inactivated FCS, L-glutamine 2 mM, and gentamicin 80 μg/ml. At the time of inoculation, the cells are detached with trypsin-EDTA and re-suspended in the same medium without PBS.
Treatment schedule 2: the same experimental groups mentioned above, each consisting of 15 mice (with different cage numbers) are treated as follows in order to evaluate survival and tumour size.
ALC administration lasts 14 days (in groups 16, 17, 18) and the tumour is measured until it reaches a size of approximately 2 cm. The animals are left alive for 100 days.
The tumour size (length and width) is measured twice a week with a calliper, from the tumour is measurable. Tumour size is expressed in cm and is evaluated according to the following formula: (length×width).
Tumour sizes are compared using the non-parametric Mann Whitney test for unpaired data.
Data set [3] relates to BALB/c mice.
For data set [4], the system named is L-MM3 murine breast cancer cells. Description: L-MM3 murine breast cancer in Balb/c mice, taxol and PLC, Experiment A (schedule A).
Description: (§1) Cell cultures of L-MM3 murine breast cancer cells were used, cultured at 37° C. in plastic flasks in a humidified atmosphere with 5% CO^2. The cells were grown in DMEM supplemented with 10% FCS and in the presence of 2 mM L-glutamine and 80 μg/ml of gentamicin. The subconfluent cells were collected during the exponential growth phase using trypsin-EDTA and re-suspended in DMEM. They were then injected subcutaneously in female Balb/c mice weighing 20 g at a density of 4×10^5.
(§2) The tumour was measured with a calliper three times a week as soon as it became palpable. The tumour mass is calculated on the basis of the measurements of the two dimensions (length and width), expressed in mm, according to the following formula: [formula]
(§3) If we consider conventionally a tumour density equal to 1, the result is that the tumour volume is equal to (mm^3=mg).
(§4) The agent is weighed, solubilised in the specific vehicle (12 mg/ml), and stored at +4° C., sheltered from the light. At the time of use, it is diluted 1:4 with saline solution in phosphate buffer (PBS, SIGMA) and injected.
(§5) Cremophor is diluted 1:1 with ethanol and stored sheltered from the light. On the day of treatment it is diluted 1:4 with PBS.
For data set [5] the test system is unchanged. Description: L-MM3 murine breast cancer in Balb/c mice, taxol and PLC, Experiment B (schedule B).
Description: as §1, §2, §3, §4, §5
Data set [6] concerns Hamsters. Description: Bleomycin-induced pulmonary toxicity in hamsters: lung histology. Format: in vivo, hamster. To be noted: day 22. As for the experimental part:
Hamsters weighing 120 g were treated with bleomycin (1 unit) by the intratracheal route (IT) or with an equivalent volume of saline. In addition, the animals were pre-treated with ALC (200 mg/kg) or saline intraperitoneally just before the instillation of bleomycin, followed by daily injections for 1 week. The animals were allowed 3 weeks to recover prior to taking the tissue samples. At the time tissue samples were taken (day 22), one lung of each animal was prepared for histological investigation and the other lung for quantitative determination of hydroxyproline.
The lungs were fixed by insufflation at 20 cm of H2O ex vivo with 10% formaldehyde in PBS (pH 7), embedded in paraffin, sectioned and stained with haematoxylin/eosin. Sections with similar orientation from the portion of the pulmonary lobe—upper, middle and lower, respectively—were examined to verify the presence and degree of inflammatory infiltrate, oedema and interstitial and intra-alveolar fibrosis.

Data set [7] relates to LOVO human colon cancer. To be noted: ALC 100 mg/kg qdx18 alone.
Description: Cell cultures of LOVO human colon cancer, transplanted in hairless mice, were used.
The tumour was inoculated in solid fragments in both flanks of the mice (day 0).
The inoculated tumours were measured with a calliper and when a mean tumour weight of 100 mg was reached (day 7), the animals were divided into 4 groups of 5 animals each according to the following schedule:
On the same day, ALC treatment was initiated and was continued for 18 consecutive days (qdx18) (groups 3 and 4). ALC was administered at the dose of 100 mg/kg with an administration volume of 25 ml/kg.
In the course of the treatment and in the following three weeks at fortnightly intervals, the tumours were measured and tumour volume inhibition was calculated (TVI%, calculated as 100-(mean weight of tumours treated/mean weight of control tumours×100)) as obtained with the various treatments.
Data set [8] deals with Female Wistar rats. The data set is described as follows: Taxol-induced peripheral neuropathy: sensory nerve conduction velocity measured on the tail. To be noted: 5 weeks.
Description: Female Wistar rats aged 3 months (Charles River) were used, housed at 22±2° C., with 50±15% relative humidity and a 12 hour light/darkness cycle.
The following method was used: the animals, anaesthetised with a gaseous mixture composed of 0.45 halothane, nitrogen protoxide and oxygen, were depilated in the stimulation zone and placed on an operating table. The recordings and stimulations of the sensory responses were done using an Ote Biomedica Phasis II electromyograph. […]
The sensory nerve conduction velocity, expressed in ms, was calculated as the ratio of the distance between the two stimulation points, expressed in mm, to the difference in latency of the waves produced by proximal (the nearest) and distal (the farthest from the dorsal spine) stimulation, expressed in ms.
The velocity was measured in all groups of animals both in basal conditions (prior to any administration) and after 5 weeks of treatment.
The results were expressed as means±standard deviation; significance was assessed using the “t”-test, for both independent and paired data, with a statistical significance cut-off of p<0.05.
[9] abbreviates: taxol i.v. 54 mg/kg/15 ml, sacrifice after 3 days' recovery from last taxol administration.
Where [10] appears, read: taxol i.v., sacrifice 6 hours after fourth taxol administration.
The mark [11] stands for this setting: L-MM3-bearing mice, sacrifice 6 hours after last taxol.

Read-outs that look alike come from different tables or passages of the source.

This is an account of results in patent US6610699B2, “Use of L-carnitine and its alkanoyl derivatives in the preparation of medicaments with anticancer activity” (Sigma-Tau Industrie Farmaceutiche Riunite S.p.A., priority 1998, dated 2003).

For `CC(=O)O[C@H]1C(=O)[C@@]2(C)[C@H]([C@H](OC(=O)c3ccccc3)[C@]3(O)C[C@H](OC(=O)[C@H](O)[C@@H](NC(=O)c4ccccc4)c4ccccc4)C(C)=C1C3(C)C)[C@]1(OC(C)=O)CO[C@@H]1C[C@@H]2O` [Taxol, paclitaxel, reference compound], in data set [1] (mouse, in vivo), the Lymphocytes was 98.6 ± 0.2%, the Neutrophils entry is listed as “****1.3 ± 0.2^ %” and the Platelets came out at 539000 ± 36057 mm^3. In data set [2] (taxol 30 mg/kg i.p. every two days x4, when control tumours reached approximately 2 cm (control 1.8 cm)), this molecule came in with a L-MM3 tumour size of 0.56 cm. In data set [3] (setting [9]), the Absolute neutrophils is 330 ± /mm^3, the Lymphocytes is 93.0% and the Neutrophils came to 7.0%. Besides, in data set [3] (setting [10]), the Absolute neutrophils is reported as 229 ± /mm^3, the Lymphocytes was 97.1% and the Neutrophils entry is “****2.9%”. In data set [4], the “Animals with tumours/total number of animals, Day 22” value is reported as 6/13; the “Animals with tumours/total number of animals, Day 25” value is 7/13; the “Animals with tumours/total number of animals, Day 28” value is listed as 9/13; the “Animals with tumours/total number of animals, Day 36” value is 11/13. Moreover, in data set [4], the “Animals with tumours/total number of animals, Day 46” value is 11/13. In addition, in data set [4] (taxol 30 mg/kg i.p. days 15,17,19,21, PLC 100 mg/kg s.c. days 12-24), the “Animals with tumours/total number of animals, Day 19” value is given as 6/13. In data set [5], the “Animals with tumours/total animals, Day 45” value is listed as 5/10; the “Animals with tumours/total animals, Day 59” value is 6/10; the “Tumour size, Day 26” value amounted to 0.1 ± 0.6; the “Tumour size, Day 31” value was 0.2 ± 0.2. Moreover, in data set [5], the “Tumour size, Day 37” value is 0.45 ± 0.2; the “Tumour size, Day 41” value amounted to 1.750 ± 1.1; the “Tumour size, Day 53” value came out at 5.000 ± 2.2; the “Tumour size, Day 59” value stood at 5.6 ± 2.2. Further, the “Tumour size, Day 0” value in data set [5] (day of inoculation) came to 0. For the same molecule, the “Animals with tumours/total animals, Day 31” value in data set [5] (taxol 30 mg/kg i.p. days 8,10,12,14, PLC 100 mg/kg s.c. to day 59) is listed as 2/10.

Turning to `CC(=O)O[C@H](CC(=O)[O-])C[N+](C)(C)C` [ALC, acetyl L-carnitine], in data set [1] (acetyl L-carnitine 100 mg/kg os once daily for 10 days combined with taxol 30 mg/kg i.p. x4), the neutrophil granulocytes was 335 /mm^3. For the same molecule, in data set [2] (ALC 100 mg/kg os once daily for 14 days plus taxol 30 mg/kg i.p. x4), the “effect on the anticancer activity of taxol (in words)” value was “did not affect the anticancer activity of taxol”. In addition, the “lung histology (in words)” value in data set [6] (animals pre-treated with ALC and given bleomycin IT) was “a number of fibrotic areas, which, however, appeared thinner with less dense areas of collapse”; in data set [6] (pre-treatment/IT instillation), “normal alveolar architecture”. In addition, in data set [7], the “effect on tumour growth (in words)” value was “no effect on tumour growth”. Further, the figures for the “Sensory nerve conduction velocity, % vs TAXOL” value in data set [8] (acetyl L-carnitine with taxol 8 mg/kg) and in data set [8] (acetyl L-carnitine with taxol 16 mg/kg) were 5% and 9%, respectively.

`CC(=O)O[C@H](CC(=O)[O-])C[N+](C)(C)C` [Vehicle + ALC, acetyl L-carnitine]: in data set [1] (setting [11]), the Absolute neutrophils result is given as “***607 ± 68 ^ /mm^3”, the Lymphocytes was found to be 87.6 ± 0.9%, the Neutrophils was found to be 12.3 ± 0.9% and the Platelets was determined as 433000 ± 45731 mm^3. In addition, in data set [1] (L-MM3-bearing mice, taxol 30 mg/kg i.p. x4, ALC 100 mg/kg os 10 days, sacrifice 6 hours after last taxol), the WBC is given as 4950 ± 385 Mm^3.
